These results are taken from a melting point compilation (Tetko et al.).

The structures appear in SMILES notation.

With `O=C1C(=Cc2ccc(Cl)cc2)SC(=S)N1CNc1ccc([N+](=O)[O-])cc1`, the melting point lay within 216 to 217 °C.
For the molecule `CC1CS(=O)(=O)CCN1N=Cc1ccc([N+](=O)[O-])o1` (stereo unspecified), the melting point turned out to be 181 °C.
Take `CC1=NNC(=O)N(N=Cc2cccnc2)C1`: the melting point came out at 217 °C.
The value for `CC(C)(C)[N+]([O-])=Cc1ccccc1` was 71 to 75 °C.
The value for `Cc1ccc2c(c1)OC(C)(c1ccc(C)cc1OC(=O)[C@]13CC[C@](C)(C(=O)O1)C3(C)C)CC2(C)C` (stereo partly specified) was 136 °C.
Next, `Cc1cc(Br)c2c(c1N)C(=O)c1ccccc1C2=O`: 245 to 252 °C.
In turn, `CC(C)(C)CC(=O)OCC(=O)C12OC(C)(C)OC1CC1C3CCC4=CC(=O)C=CC4(C)C3(F)C(O)CC12C` (stereo unspecified) gave a melting point of 295 °C.
The value for `Cc1c(C(=O)O)cnn1-c1ccc(F)cc1` was 165 to 166 °C.
The value for `CCCCCCCCOC(=O)CCC` was -55.6 °C.
For `O=C1C(=Cc2ccccc2)Cc2ccccc21`, the melting point was 110 °C.
Next, `CC(=O)N1C(C(=O)O)Cc2c([nH]c3ccccc23)C1(C)C` (stereo unspecified): 160 °C.
Next, `COc1ccc(OC)c(C#N)c1`: 82 °C; `O=C(O)C(Br)Br`: 49 °C.
As for `O=C1CN2CCOC2(c2ccccc2Cl)c2cc(Cl)ccc2N1` (stereo unspecified), the melting point stood at 203 °C.
Next, `O=[N+]([O-])c1c(Cl)ccc(O)c1Cl`: 87 °C.
Consider `Fc1cnc(Cl)nc1Cl`, for which the melting point amounted to 38 °C.
Next, `Brc1cccc(Br)c1`: -7 °C; `C=CCN=C(NCC=C)c1cc(C(C)(C)C)c(O)c(C(C)(C)C)c1`: 201 to 202 °C.
The value for `C=Cc1ccc(C(N)=O)cc1` was 170 °C; that for `O=C(O)C(F)(F)C(F)(F)C(F)(F)C(=O)O` was 94.5 °C; that for `COc1ccc2c(c1)N(CC(C)CN1CCC(O)CC1)c1ccccc1S2` (stereo unspecified) was 138 °C.
Molecule `C=CCNC(N)=O` yielded a melting point of 85 °C.
Next, `CC(=O)OCC1OC(OC2(COC(C)=O)OC(COC(C)=O)C(OC(C)=O)C2OC(C)=O)C(OC(C)=O)C(OC(C)=O)C1OC(C)=O` (stereo unspecified): 86.5 °C; `CCCOCC(C)O` (stereo unspecified): -80 °C; `COc1ccc2cc(C(=O)c3cc4ccc(OC)cc4oc3=O)c(=O)oc2c1`: 271 °C.
The value for `CC(C)(C)OC(=O)NC(Cc1ccc(Br)s1)C(=O)O` (stereo unspecified) was 70.3 °C.
Next, `O=C(C1=NOC2C(=O)N(c3ccc(F)cc3)C(=O)C12)c1ccc2ccccc2c1` (stereo unspecified): 193 °C.
Take `O=C(c1ccc(F)cc1)c1ccccc1F`: the melting point lay within 22 to 24 °C.
Regarding `Cc1c(C)c(C)c(O)c(C)c1C`, the melting point is 128 °C.
`CC1CCNCC1` returned a melting point of 5 °C.
The value for `COc1ccc(C=O)cc1Br` was 51 °C; that for `CCCC(C)C(=O)Nc1ccc(C)c(Cl)c1` (stereo unspecified) was 85.5 °C; that for `C=C(C)C(=O)OCC` was -60 °C.
Next, `NS(=O)(=O)c1ccc(F)c(C(F)(F)F)c1`: 162 °C; `O=C(O)c1cccc(-c2ccccc2)c1`: 167 °C.
Next, `COC(=O)[C@@]12[C@H]3c4c(c(-c5ccccc5)c5ccccc5c4-c4ccccc4)[C@@H]1C=C[C@]32C(=O)OC`: 210 °C; `c1ccc(CC2CCCCN2)cc1` (stereo unspecified): 32 °C; `ON=C(O)c1ccccc1O`: 177 to 185 °C.
In turn, `Cc1ccccc1NC(=O)C(C)(C)C` gave a melting point of 111 to 115 °C.
`Cc1nc2ccccc2c2c1C(=O)NC2=O`: the melting point was in the range of 255 to 256 °C.
Next, `CCCN`: -83 °C; `O=S1(=O)Cc2ccccc2C1`: 151 to 152 °C.
Next, `OCc1csc(N2CCOCC2)n1`: 118 to 120 °C; `Nc1c(Cl)cc(C(F)(F)F)cc1[N+](=O)[O-]`: 66 to 68 °C.
Next, `CC(C)(C)N(NC(=O)c1ccccc1)C(=O)c1cccc(C#N)c1`: 174 °C; `CC(C)(C)C(=O)Nc1ccccc1Cc1ccccc1`: 86 to 90 °C.
`CCCCCCCC(=O)NN`: the melting point was determined as 88 °C.
Next, `CC(=O)Oc1c(C)c(C)c2c(c1C)CCC(C)(CCCC(C)CCCC(C)CCCC(C)C)O2` (stereo unspecified): -28 °C; `Cc1cc(=O)n(N)c(=S)[nH]1`: 262 °C.
Next, `COc1ccc(S(=O)(=O)Cl)cc1`: 40 to 42 °C; `N#Cc1ccc(OC2CCOCC2)cc1`: 109 to 112 °C.
The value for `O=[N+]([O-])c1cccc2c(Br)n[nH]c12` was 175 to 185 °C.
With `N#Cc1c(-c2cccs2)cc(-c2ccco2)[nH]c1=O`, the melting point was in the range of 318 to 320 °C.
`CSc1ccc2ccccc2c1` showed a melting point of 63 °C.
The value for `OC[C@H]1O[C@@H](Oc2ccccc2)[C@H](O)[C@@H](O)[C@@H]1O` was 177 °C; that for `CC(=O)Oc1ccc(C(C)(C)c2ccc(OC(C)=O)cc2)cc1` was 86 to 91 °C.
The molecule `Cc1c(C)c(C)c2c(=O)n3ccccc3cc2c1C` came in with a melting point of 221 °C.
Next, `O=C1NN(c2ccccc2)C(=O)C1(Br)Br`: 119 °C; `CCOC(=O)N1CCC2(CC1)C(=O)N(CO)CN2c1ccccc1`: 134 to 139 °C; `Nc1c(Br)cc(F)c(Cl)c1Br`: 98 °C.
For the molecule `FC(F)(F)c1cc(Cl)cc(Cl)c1`, the melting point is -13 to -12 °C.
In turn, `COC(=O)C=CC(C)=CC=CC(C)=CC=CC=C(C)C=CC=C(C)C=CC(=O)O` displayed a melting point of 198 °C.
The value for `COC(=O)C1(S(=O)(=O)c2ccc(Cl)cc2)CCC1` was 76.2 °C; that for `O=C1Nc2ccccc2C=NC2CCCCC2N=Cc2ccccc2NC1=O` (stereo unspecified) was 223 to 225 °C.
In turn, `CC12CCC(/C(=C/Nc3ccc(Cl)cc3)C1=O)C2(C)C` (stereo unspecified) registered a melting point of 167 to 169 °C.
As for `Clc1ccc(C2NN=C3c4ccccc4CCC32)cc1` (stereo unspecified), the melting point fell in the range of 181 to 184 °C.
The value for `O=C(C1=NOC2C(=O)N(c3cc(Cl)ccc3Cl)C(=O)C12)c1ccccc1` (stereo unspecified) was 185 °C; that for `CC(=O)Cc1ccco1` was 29 °C; that for `C=C(C)CCCCCCCCCCCCC` was -7 °C.
Next, `O=C(O)C1OC1C(=O)O` (stereo unspecified): 148 to 149 °C; `CC(=C\OC(=O)c1ccccc1)/C(C)=N/OC(=O)c1ccccc1`: 231 to 232 °C; `CS(=O)(=O)c1csc(C(=O)Cl)c1Cl`: 181 to 185 °C.
The value for `Cc1nccc(-c2cccc(Br)c2)n1` was 66 to 69 °C; that for `CC(O)C(N)CO` (stereo unspecified) was 54 to 57 °C; that for `O=C(O)c1ccc(C(=O)O)c(C(=O)O)c1` was 231 °C.
In the case of `Nc1ccc(Cl)c(F)c1`, the melting point is 60 °C.
`COc1cc2c(c(O)c1OC)CCN(C)C2C` (stereo unspecified) showed a melting point of 152 °C.
With `CCCCCC1C(=O)CCC1CC(=O)OC` (stereo unspecified), the melting point is -10 °C.
As to `O=[N+]([O-])c1ccc(NCc2ccccc2)c2nonc12`, the melting point was 206 to 209 °C.
Next, `O=Cc1ccc2c(c1[N+](=O)[O-])C(=O)c1c(Cl)c(Cl)c(Cl)c(Cl)c1C2=O`: 265 to 268 °C.
The value for `CCCCS(=O)(=O)NC(Cc1ccc(OCCCCC2CCNCC2)cc1)C(=O)O` (stereo unspecified) was 223 °C; that for `N#Cc1cn(-c2ccccc2Cl)c(=O)[nH]c1=O` was 255 to 258 °C; that for `O=C(CCC1=NC=NC1)NCCc1c[nH]cn1` was 164 °C.
Next, `Nc1ccc(I)cc1Cl`: 73 to 75 °C.
With `O=S(=O)(Cl)c1ccccc1F`, the melting point was found to be 30 °C.
The value for `CC(=O)c1cn(C)c2ccccc12` was 107 °C; that for `Cc1nccnc1C` was 11 to 13 °C; that for `CCOC(=O)CCCCC(=O)O` was 29 °C.
The value for `NC(=O)C1(N2C(=O)c3cccc(Cl)c3C2=O)CCCCC1` was 194 °C; that for `O=C(O)CC1CC(=O)OC1C(=O)O` (stereo unspecified) was 159 °C.
The value for `Cc1cc(C)c(P(c2c(C)cc(C)cc2C)c2c(C)cc(C)cc2C)c(C)c1` was 187 °C; that for `O=C(Nc1ccccn1)c1cc([N+](=O)[O-])cc([N+](=O)[O-])c1` was 201 °C.
As for `CCCCCCCCCCCCCCCCCCOC(C)=O`, the melting point stood at 34.5 °C.
`N=C(N)NC(N)=S` displayed a melting point of 172 °C.
The value for `Cn1c(=O)c(C2=NNC(=O)C2=NNc2cccc(Cl)c2)c(O)c2ccccc21` was 222 °C.
Turning to `CSc1ccc(O)cc1`, the melting point came out at 86 °C.
`COc1cc(C=CC(=O)O)cc(OC)c1` had a melting point of 173 to 176 °C.
The value for `O=C(O)CNc1ccccc1` was 128 °C; that for `Nc1ccc(C(=O)O)cc1F` was 215 °C.
The molecule `Oc1ccccc1N1CCCC1` gave a melting point of 111 °C.
The value for `CC=CC(C)C(C)C=CC` (stereo unspecified) was -64.8 °C.
Consider `Brc1sc(Br)c2c1OCCO2`, for which the melting point turned out to be 98 °C.
Molecule `Cc1ccncc1[N+](=O)[O-]` yielded a melting point of 20 °C.
Next, `COc1ccccc1-c1ccc(C=CC(=O)c2ccco2)o1`: 96 to 98 °C.
The value for `NC(=O)NC1NC(=O)NC1=O` (stereo unspecified) was 238 °C; that for `Cc1cc(C(=O)CC#N)c(C)o1` was 120 to 122 °C; that for `CCCC(C)C1(CC)C(=O)NC(=S)NC1=O` (stereo unspecified) was 130 °C.
The value for `FC(F)(F)c1ccc(Br)nc1` was 46 to 47 °C; that for `O=C(O)C=CC(=O)Nc1cccc(C(F)(F)F)c1` was 161 to 164 °C.
The molecule `NC(=NO)c1ccc(Cl)cc1` returned a melting point of 131 to 134 °C.
The value for `c1cc2c3c(ccc4c3c1CCC4)CCC2` was 133 °C.

Usually melting point stands for the temperature, or range, at which the solid turns liquid.
